# Results from patent publication US10933051B2, “Carbapenem compounds and compositions for the treatment of bacterial infections” (FOB Synthesis, Inc., priority 2017, dated 2021).
# Key:
# Experiment in all cases: Antimicrobial Susceptibility Test (CLSI), Test Example 2
# Format in all cases: cell-based
# Set-up in all cases: unit not given here
# [1] = test system: A. baumannii FSAb-029; details: Table 4; strain produces OXA-2, IMP-1
# Protocol: (§1) Antimicrobial Susceptibility Test was performed by the CLSI (Clinical and Laboratory Standards Institute) methods. The agar dilution method for determining antimicrobial susceptibility was carried out using Mueller Hinton-II agar and the amount of inoculation was 10^4CFU/spot. Broth dilution tests were performed using the Mueller Hinton-II broth. All assays were run with the indicated control strains, available from the ATCC (American Type Culture Collection, Rockville, Md.).
# [2] = test system: K. pneumoniae ATCC BAA-1904; details: Table 4; strain produces KPC-3
# Protocol: as §1
# [3] = test system: A. baumannii FSAb-056; details: Table 4; strain produces OXA-23, OXA-51
# Protocol: as §1
# [4] = test system: A. baumannii FSAb-039; details: Table 4; strain produces OXA-51
# Protocol: as §1
# [5] = test system: P. aeruginosa FSPa-121; details: Table 4; strain produces OXA-17
# Protocol: as §1
# [6] = test system: A. baumannii FSAb-065; details: Table 4; strain produces OXA-2, VIM-2
# Protocol: as §1
# [7] = test system: E. coli FSEco-054; details: Table 4; strain produces ESBL
# Protocol: as §1
Structure (SMILES),"antimicrobial susceptibility, A. baumannii FSAb-029 [1]","antimicrobial susceptibility, K. pneumoniae BAA-1904 [2]","antimicrobial susceptibility, A. baumannii FSAb-056 [3]","antimicrobial susceptibility, A. baumannii FSAb-039 [4]","antimicrobial susceptibility, P. aeruginosa FSPa-121 [5]","antimicrobial susceptibility, A. baumannii FSAb-065 [6]","antimicrobial susceptibility, E. coil FSEco-054 [7]"
C[C@@H](O)[C@H]1C(=O)N2C(C(=O)O)=C(CN(C)CCNC(=O)c3ccc(O)c(O)c3F)[C@H](C)[C@H]12 [Compound 2],2,16,2,4,2,2,2
C[C@@H](O)[C@H]1C(=O)N2C(C(=O)O)=C(CN(C)CCNC(=O)c3ccc(O)c(O)c3C(F)(F)F)[C@H](C)[C@H]12 [Compound 3],4,32,4,4,4,2,4
Cc1c(C(=O)NCCN(C)CC2=C(C(=O)O)N3C(=O)[C@H]([C@@H](C)O)[C@H]3[C@H]2C)ccc(O)c1O [Compound 4],8,16,8,8,8,4,8
C[C@@H](O)[C@H]1C(=O)N2C(C(=O)O)=C(CN(C)CCNC(=O)c3cc(O)c(O)c(F)c3)[C@H](C)[C@H]12 [Compound 7],2,16,2,4,2,2,2
C[C@@H](O)[C@H]1C(=O)N2C(C(=O)O)=C(CN(C)CCNC(=O)c3ccc(O)cc3)[C@H](C)[C@H]12 [Compound 10],16,8,16,>32,>32,16,>32
C[C@@H](O)[C@H]1C(=O)N2C(C(=O)O)=C(CN(C)CCNC(=O)c3cccc(O)c3Cl)[C@H](C)[C@H]12 [Compound 11],32,8,32,>32,>32,32,>32
C[C@@H](O)[C@H]1C(=O)N2C(C(=O)O)=C(CN(C)CCNC(=O)c3cccc(O)c3F)[C@H](C)[C@H]12 [Compound 12],32,4,32,>32,>32,32,>32
C[C@@H](O)[C@H]1C(=O)N2C(C(=O)O)=C(CN(C)CCNC(=O)c3ccccc3Cl)[C@H](C)[C@H]12 [Compound 13],32,8,32,>32,>32,16,>32
C[C@@H](O)[C@H]1C(=O)N2C(C(=O)O)=C(CN(C)CCNC(=O)c3ccc(Cl)cc3)[C@H](C)[C@H]12 [Compound 14],>32,16,>32,>32,>32,>32,>32
C[C@@H](O)[C@H]1C(=O)N2C(C(=O)O)=C(CN(C)CCNC(=O)c3ccc(OC(=O)C(C)(C)C)c(OC(=O)C(C)(C)C)c3Cl)[C@H](C)[C@H]12 [Compound 16],4,>32,8,8,8,8,8
C[C@@H](O)[C@H]1C(=O)N2C(C(=O)O)=C(CN(C)CCCNC(=O)c3ccc(O)c(O)c3Cl)[C@H](C)[C@H]12 [Compound 17],2,32,4,8,4,2,2
C[C@@H](O)[C@H]1C(=O)N2C(C(=O)O)=C(CN(C)CC(NC(=O)c3ccc(O)c(O)c3Cl)C(N)=O)[C@H](C)[C@H]12 (some centres unmarked) [Compound 18],8,16,4,4,2,1,2
C[C@@H](O)[C@H]1C(=O)N2C(C(=O)O)=C(CN(C)CC(=O)NCc3ccc(O)c(O)c3Cl)[C@H](C)[C@H]12 [Compound 21],8,8,8,8,2,2,4
C[C@@H](O)[C@H]1C(=O)N2C(C(=O)O)=C(CN3CC[C@H](NC(=O)c4ccc(OCc5ccccc5)c(OCc5ccccc5)c4Cl)C3)[C@H](C)[C@H]12 [Compound 28],0.5,>32,4,8,2,0.5,2
C[C@@H](O)[C@H]1C(=O)N2C(C(=O)O)=C(CN3CC(NC(=O)c4ccc(O)c(O)c4F)[C@@H](O)C3)[C@H](C)[C@H]12 (some centres unmarked) [Compound 36],4,32,8,4,–,–,4
C[C@@H](O)[C@H]1C(=O)N2C(C(=O)[O-])=C(C[N+](C)(C)CCNC(=O)c3ccc(O)c(O)c3F)[C@H](C)[C@H]12 [Compound 41],8,8,32,16,–,–,4
C[C@@H](O)[C@H]1C(=O)N2C(C(=O)[O-])=C(C[N+]3(CCNC(=O)c4ccc(O)c(O)c4F)CCCC3)[C@H](C)[C@H]12 [Compound 42],4,16,16,8,–,–,2
